The results in this text go back to patent publication US20220315578A1, “BRD9 BIFUNCTIONAL DEGRADERS AND THEIR METHODS OF USE” (NOVARTIS AG, priority 2019, published 2022).

The structures appear in SMILES notation.

This assay deals with T1, BRD9-GFP (Homo sapiens, UniProt Q9H8M2).
T1 construct: CHYSEL (2A cis-acting hydrolase element) remnant after GFP; mCherry is split off as a separate protein (C); expressed in transfected cells; host or cells: HEK293A cells (Invitrogen R70507), lentiviral transduction with pLenti6-BRD9-GFP-CHYSEL-mCherry, blasticidin selection
T1 sequence (Q9H8M2 1-597): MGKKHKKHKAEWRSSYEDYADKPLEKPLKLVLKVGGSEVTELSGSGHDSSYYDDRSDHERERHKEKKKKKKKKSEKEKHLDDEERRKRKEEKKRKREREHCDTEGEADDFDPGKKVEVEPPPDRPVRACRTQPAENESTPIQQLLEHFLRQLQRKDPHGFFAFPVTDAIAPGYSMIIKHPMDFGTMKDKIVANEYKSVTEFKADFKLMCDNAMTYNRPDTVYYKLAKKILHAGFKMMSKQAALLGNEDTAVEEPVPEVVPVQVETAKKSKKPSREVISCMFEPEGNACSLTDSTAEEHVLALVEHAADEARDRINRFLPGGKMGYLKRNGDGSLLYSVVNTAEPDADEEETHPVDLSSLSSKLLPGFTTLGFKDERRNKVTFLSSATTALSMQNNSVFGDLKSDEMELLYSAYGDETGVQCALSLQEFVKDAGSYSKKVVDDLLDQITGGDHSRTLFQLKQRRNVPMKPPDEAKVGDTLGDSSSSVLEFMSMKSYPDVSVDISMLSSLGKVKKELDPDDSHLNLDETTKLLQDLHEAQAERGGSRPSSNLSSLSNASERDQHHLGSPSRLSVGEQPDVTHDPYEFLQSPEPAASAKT
The assay can be described thus: BRD9-GFP protein abundance flow cytometry assay in HEK293A cells. The class given is cell-based. The following applies: HEK293A-BRD9-GFP-CHYSEL-mCherry cells; for BRD9 Deg Amax %: 24 h, % protein remaining at the concentration at which maximum degradation is seen; for DC50: 24 h at 37° C., 10-point 1:3 dilution, concentration at which 50% maximal degradation was observed. Summed up:
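HEK293A cells stably express bicistronic BRD9-GFP-CHYSEL-mCherry and received 24 h treatment at 37° C with a 10-point, 3-fold dilution series from […], in 0.1% DMSO and duplicate. Median GFP/mCherry ratio of 5,000 single cells by flow cytometry, normalized to mCherry-only cells (0%) and DMSO (100%), gave DC50 and Amax (% protein remaining).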
Background: Flow cytometry measures light scatter and fluorescence of single cells or particles in a stream.

In general, DC50 refers to the midpoint of the concentration-degradation curve. High values mean a less potent degrader, low ones a more potent degrader.

For the compound `COc1cc(-c2cn(C)c(=O)c3cnccc23)cc(OC)c1CCCN1CCC(OC2CCN(C(=O)c3ccc(Cl)c(N4CCC(=O)NC4=O)c3)CC2)CC1` [Compound A28, 1-(2-Chloro-5-(4-((1-(3-(2,6-dimethoxy-4-(2-methyl-1-oxo-1,2-dihydro-2,7-naphthyridin-4-yl)phenyl)propyl)piperidin-4-yl)oxy)piperidine-1-carbonyl)phenyl)dihydropyrimidine-2,4(1H,3H)-dione], the “BRD9 Deg Amax %” value is reported as 22.70% and the DC50 worked out at 2 nM.

For `CCCCn1cc(-c2ccc(O[C@H]3CCN(CC4CCN(C(=O)c5ccc(OC)c(N6CCC(=O)NC6=O)c5)CC4)C[C@@H]3F)cc2)c2ccncc2c1=O` [Compound E31, 1-(5-(4-(((3S,4S)-4-(4-(2-butyl-1-oxo-1,2-dihydro-2,7-naphthyridin-4-yl)phenoxy)-3-fluoropiperidin-1-yl)methyl)piperidine-1-carbonyl)-2-meth-oxyphenyl)dihydro-pyrimidine-2,4(1H,3H)-dione], the “BRD9 Deg Amax %” value stood at 16.43% and half-maximal degradation (DC50) was put at 1 nM.

Take `COc1ccc(C(=O)N2CCC(OC3CCN(CCc4c(OC)cc(-c5cn(C)c(=O)c6cnccc56)cc4OC)CC3)CC2)cc1N1CCC(=O)NC1=O` [Compound A32, 1-(5-(4-((1-(2,6-Dimethoxy-4-(2-methyl-1-oxo-1,2-dihydro-2,7-naphthyridin-4-yl)phenethyl)piperidin-4-yl)oxy)piperidine-1-carbonyl)-2-methoxyphenyl)dihydropyrimidine-2,4(1H,3H)-dione]: the “BRD9 Deg Amax %” value turned out to be 16.20% and the DC50 turned out to be 6 nM.

Consider `CCCCn1cc(-c2cc(OC)c(CN3CC[C@@H](OC4CCN(C(=O)c5ccc(OC)c(N6CCC(=O)NC6=O)c5)CC4)[C@H](F)C3)cc2OC)c2ccncc2c1=O` [Compound E36, 1-(5-(4-(((3R,4R)-1-(4-(2-butyl-1-oxo-1,2-dihydro-2,7-naphthyridin-4-yl)-2,5-dimethoxybenzyl)-3-fluoropiperidin-4-yl)oxy)piperidine-1-carbonyl)-2-methoxyphenyl)dihydropyrimidine-2,4(1H,3H)-dione], for which the “BRD9 Deg Amax %” value is recorded as 12.80% and half-maximal degradation (DC50) was put at 6 nM.

As for `Cn1cc(-c2cc(F)c(CN3CC[C@@H](OC4CCN(CCn5cccc(CN6CCC(=O)NC6=O)c5=O)CC4)[C@H](F)C3)c(F)c2)c2ccncc2c1=O` [Compound E30, 1-((1-(2-(4-(((3R,4R)-1-(2,6-difluoro-4-(2-methyl-1-oxo-1,2-dihydro-2,7-naphthyridin-4-yl)benzyl)-3-fluoropiperidin-4-yl)oxy)piperidin-1-yl)ethyl)-2-oxo-1,2-dihydropyridin-3-yl)methyl)dihydro-pyrimidine-2,4(1H,3H)-dione], the “BRD9 Deg Amax %” value is 11.19% and the DC50 amounted to 3 nM.

As for `COc1cc(-c2cn(C)c(=O)c3cnccc23)cc(OC)c1CN1CCC(OC2CCN(C(=O)c3ccc(C)c(N4CCC(=O)NC4=O)c3)CC2)CC1` [Compound A33, 1-(5-(4-((1-(2,6-Dimethoxy-4-(2-methyl-1-oxo-1,2-dihydro-2,7-naphthyridin-4-yl)benzyl)piperidin-4-yl)oxy)piperidine-1-carbonyl)-2-methylphenyl)dihydropyrimidine-2,4(1H,3H)-dione], the “BRD9 Deg Amax %” value is recorded as 13.30% and the DC50 was found to be 34 nM.

Turning to `CCCCn1cc(-c2cc(OC)c(CCN3CC[C@@H](OC4CCN(C(=O)c5ccc(Cl)c(N6CCC(=O)NC6=O)c5)CC4)[C@H](F)C3)cc2OC)c2ccncc2c1=O` [Compound E47, 1-(5-(4-(((3R,4R)-1-(4-(2-butyl-1-oxo-1,2-dihydro-2,7-naphthyridin-4-yl)-2,5-dimethoxyphenethyl)-3-fluoropiperidin-4-yl)oxy)piperidine-1-carbonyl)-2-chlorophenyl)dihydro-pyrimidine-2,4(1H,3H)-dione], the “BRD9 Deg Amax %” value was determined as 32.89% and the DC50 turned out to be 49 nM.

In the case of `CCCCn1cc(-c2ccc(O[C@H]3CCN(CC4CCN(CCOc5ccc(C)c(N6CCC(=O)NC6=O)c5)CC4)C[C@@H]3F)c(OC)c2)c2ccncc2c1=O` [Compound E22, 1-(5-(2-(4-(((3S,4S)-4-(4-(2-butyl-1-oxo-1,2-dihydro-2,7-naphthyridin-4-yl)-2-methoxyphenoxy)-3-fluoropiperidin-1-yl)methyl)piperidin-1-yl)ethoxy)-2-methylphenyl)dihydropyrimidine-2,4(1H,3H)-dione], the “BRD9 Deg Amax %” value is listed as 39.25% and it took 34 nM to reach half-maximal degradation (DC50).

As for `COc1cc(-c2cc(C)c(=O)n(C)c2)c(OC)cc1CN1CCC(OC2CCN(C(=O)c3cccc(N4CCC(=O)NC4=O)c3)CC2)CC1` [Compound A16, 1-(3-(4-((1-(4-(1,5-Dimethyl-6-oxo-1,6-dihydropyridin-3-yl)-2,5-dimethoxybenzyl)piperidin-4-yl)oxy)piperidine-1-carbonyl)phenyl)dihydropyrimidine-2,4(1H,3H)-dione], the “BRD9 Deg Amax %” value is listed as 6.37% and the DC50 amounted to 32 nM.

`CCCCCCn1cc(-c2cc(OC)c(CCN3CCC(OC4CCN(C(=O)c5ccc(F)c(N6CCC(=O)NC6=O)c5)CC4)CC3)c(OC)c2)c2ccncc2c1=O` [Compound E15, 1-(2-fluoro-5-(4-((1-(4-(2-hexyl-1-oxo-1,2-dihydro-2,7-naphthyridin-4-yl)-2,6-dimethoxyphenethyl)piperidin-4-yl)oxy)piperidine-1-carbonyl)phenyl)dihydropyrimidine-2,4(1H,3H)-dione]: the “BRD9 Deg Amax %” value is 19.85% and it took 17 nM to reach half-maximal degradation (DC50).

`COc1cc(-c2cc(C)c(=O)n(C)c2)ccc1C(=O)N1CCC(OC2CCN(C(=O)c3ccc(OC)c(N4CCC(=O)NC4=O)c3)CC2)CC1` [Compound A2, 1-(5-(4-((1-(4-(1,5-Dimethyl-6-oxo-1,6-dihydropyridin-3-yl)-2-methoxybenzoyl)piperidin-4-yl)oxy)piperidine-1-carbonyl)-2-methoxyphenyl)dihydropyrimidine-2,4(1H,3H)-dione]: the “BRD9 Deg Amax %” value was 13.39% and the DC50 is 63 nM.

`COc1cc(-c2cn(C)c(=O)c3cnccc23)c(OC)cc1CN1CCC(OC2CCN(C(=O)c3ccc(C)c(N4CCC(=O)NC4=O)c3)CC2)CC1` [Compound A29, 1-(5-(4-((1-(2,5-Dimethoxy-4-(2-methyl-1-oxo-1,2-dihydro-2,7-naphthyridin-4-yl)benzyl)piperidin-4-yl)oxy)piperidine-1-carbonyl)-2-methylphenyl)dihydropyrimidine-2,4(1H,3H)-dione]: the “BRD9 Deg Amax %” value turned out to be 15.75% and the DC50 came out at 34 nM.

For `Cn1cc(-c2cc(F)c(CN3CCC(OC4CCN(CCn5cccc(CN6CCC(=O)NC6=O)c5=O)CC4)CC3)cc2F)c2ccncc2c1=O` [Compound E1, 1-((1-(2-(4-((1-(2,5-difluoro-4-(2-methyl-1-oxo-1,2-dihydro-2,7-naphthyridin-4-yl)benzyl)piperidin-4-yl)oxy)piperidin-1-yl)ethyl)-2-oxo-1,2-dihydropyridin-3-yl)methyl)dihydropyrimidine-2,4(1H,3H)-dione], the “BRD9 Deg Amax %” value is 19.40% and half-maximal degradation (DC50) was put at 6 nM.
